From patent US10279023B2, “Mucin-associated surface protein as a vaccine against chagas disease” (BOARD OF REGENTS, THE UNIVERSITY OF TEXAS SYSTEM, priority 2013, dated 2019)

What was measured:
[1] = tested on: IL-4, IL-10, IL-12, IL-17A, and IFN-gamma; test: Evaluation of cytokines (Mouse Inflammatory Cytokines Multi-analyte ELISArray) in immunized, challenged mice; type: in vivo; conditions: without the aid of any additional adjuvants
Description: (§1) C3H/HeNsd female mice (6-8 weeks old) were separated in five groups (4 mice/group). The immunizations were performed via intraperitoneal (i.p.) injection. One control group was immunized with phosphate buffer saline (PBS, placebo). Two control groups for the adjuvants were given 0.9% aluminum hydroxide (AIOH) and KLH at 10 μg/mouse. Two experimental groups were administered 20 μg/mouse of MASPsyn alone and combined with 0.9% aluminum hydroxide, respectively. A total of 3 immunizations every 10-15 days were administered.
Four weeks post-infection, the blood was collected by tail-bleeding and a pool of serum from each experimental group was obtained as described above. Cytokines were measured using Mouse Inflammatory Cytokines Multi-analyte ELISArray Kit. FIG. 2 illustrates cytokine profiles of immunized mice following parasite challenge. Anti-inflammatory (IL-4 and IL-10) and proinflammatory (IFN-γ, IL-12, and IL-17) cytokines were assayed in triplicate by ELISA four weeks after the last immunization and approximately two weeks after the challenge. Each bar represents the mean value±SEM (n=4 animals per group) for each treatment.

[2] = tested on: T. cruzi Y strain trypomastigotes; test: Challenge - parasitemia and survival of immunized mice; type: in vivo, Trypanosoma cruzi; conditions: without the aid of any additional adjuvants
Description: as §1
Ten days after last immunization mice were inoculated via intraperitoneal injection with 1×10^5 trypomastigote Y strain, the parasitemia and survival were monitored. The parastemia were evaluated every day for the first 12 days then every third day for a total of 21 days. FIG. 1 illustrates the resulting parasitemia and survival for each of the control and experimental groups.

[3] = tested on: C3H/HeNsd female mice; test: Evaluation of the humoral immune response (serum antibody titers by ELISA after immunization); type: in vivo; conditions: immunized mice, without the aid of any additional adjuvants
Description: as §1
Ten days after the last immunization blood was collected by tail bleeding and serum was separated from blood by centrifugation at 2,000 rpm for 10 min. The serum antibody titers were determined by an ELISA. Human Chagasic and normal serum were also tested for antibody titers against MASPsyn.

## DAENPGGEVFNDNKKGLSRV (listed as Trypanosoma cruzi) [MASPsyn]
[1]
  cytokine (e.g., IL-4, IL-10, IL-12, IL-17A, and IFN-gamma) production: able to stimulate
[2]
  survivability of immunized-infected mice: increase survivability
[3]
  antibody production: able to stimulate
